Assay results reported in patent EP1891948A1, “Treatment of neurological and neuropsychological disorders” (Probiodrug AG, priority 2000, dated 2002).

System: WistarF/Han (WF) rats
Assay: Elevated plus maze (EPM) test after i.c.v. treatment
Format: in vivo
Conditions: low dose (50pmol), Fig. 6
Procedure: Animals. Male WistarF/Han (WF) rats (Central Animal Laboratory, Hannover Medical School, Hannover, Germany, see http://www.mh-hannover.de/institut/tierlabor/wf.htm for details), weighing 350-390g, were housed in a sound-proof, temperature controlled (24.0±0.5°C) room under specific pathogen free conditions with a 12/12h dark/light cycle (lights on at 07.00 with illumination level of 80 Lux). Food (Altromin lab chow pellets) and tap water were available ad libitum. Under ketamine/xylasine (100/5 mg/kg, i.p.) anesthesia, the rats were fixed in a Kopf stereotaxic frame and implanted with cannulae (Plastic One, Inc., Roanoke, VA, USA) above the lateral ventricle. All research and animal care procedures were approved by the Lower Saxony district government (Hannover, Germany) and followed principles described in the European Community's Council Directive of 24 November 1986 (86/609/EEC). […]
Elevated plus maze (EPM) testing. […] The following parameters were calculated: Total numbers of arm entries (TA); entries to closed arms (CA); entries to open arms (OA); percentage frequency of entries to open arms (%OA: OAx100/TA); total trial duration (TT): 300s; duration of stay in closed arms (closed time; CLT); percentage share of CLT in total arms-stay duration (CLTx100/AT); duration of stay in open arms (open time; OT) and percentage share of OT in total arm-stay duration (%OT: OTx100/AT). […]

SMILES: CCC(C)C(N)C(=O)N1CCSC1 (stereo not shown) [isoleucyl thiazolidine]
- percentage of time spent on the open arms of the maze: increased
